Measured values: publication PMC6315490, “Angucycline Glycosides from an Intertidal Sediments Strain Streptomyces sp. and Their Cytotoxic Activity against Hepatoma Carcinoma Cells” (Marine Drugs, 2018)
Entries after “also recorded” stand apart in the source; their conditions may differ.

How the values were obtained:
Assay type in all cases: cell-based
[1] = MTT cytotoxicity assay, normal liver cell LO2; conditions: human; MTT method; LO2 normal liver cells
Protocol: (§1) Though, the distinct in vivo toxicity restricted the further development of these compounds to be clinical drugs. Recently, an atypical angucycline, lomaiviticin A, was reported to be under preclinical evaluation for antitumor treatment due to its prominent cytotoxicity and effects of inducing double-strand breaks in DNA [14, 23]. In present work, 1–4 were assayed for their cytotoxic activity against normal liver cell LO2, hepatoma carcinoma HepG-2, SMMC-7721 and plc-prf-5 cell lines by 3-(4,5-dimethylthiazol-2-yl)-2,5-diphenyltetrazolium bromide (MTT) method (Table 2).
(§2) The cytotoxicity evaluations of 1–4 against normal liver cell and hepatoma carcinoma cells were carried out using the 3-(4,5-dimethylthiazole-2-yl)-2,5-diphenyltetrazolium bromide (MTT) assay. Doxorubicin was used as positive control drug and deionized H2O with the same DMSO concentration was used as parallel control. DAPI staining test was employed to qualitatively observe apoptosis, and the apoptotic ratio was measured by flow cytometric analysis (Becton Dickinson FACScan, San Jose, CA, USA). These tests were conducted using the methods as previously described.

[2] = tested on: hepatoma carcinoma HepG-2 cells; assay: MTT cytotoxicity assay, HepG-2; conditions: Homo sapiens, HepG2, MTT method
Protocol: as §1, §2

[3] = tested on: hepatoma carcinoma SMMC-7721 cells; assay: MTT cytotoxicity assay, SMMC-7721; conditions: Homo sapiens, MTT method
Protocol: as §1, §2

[4] = tested on: hepatoma carcinoma plc-prf-5 cells; assay: MTT cytotoxicity assay, plc-prf-5; conditions: Homo sapiens, MTT method
Protocol: as §1, §2

[5] = tested on: SMMC-7721 cells; assay: DAPI staining test for apoptosis; conditions: 0.025 to 0.100 μM for 24 h
Protocol: as §1
(§3) Figure 5 (a) Fluorescence micrographs of untreated and saquayamycin B-treated SMMC-7721 cells (24 h) stained with DAPI, Magnification: 100×; (b) Quantification of saquayamycin B-induced apoptosis in SMMC-7721 cell using flow cytometric analysis. ** p < 0.01 versus saquayamycin B 0 μM group. […]
(§4) The cytotoxicity evaluations of 1–4 against normal liver cell and hepatoma carcinoma cells were carried out using the 3-(4,5-dimethylthiazole-2-yl)-2,5-diphenyltetrazolium bromide (MTT) assay. […] DAPI staining test was employed to qualitatively observe apoptosis, and the apoptotic ratio was measured by flow cytometric analysis (Becton Dickinson FACScan, San Jose, CA, USA). […]

[6] = tested on: SMMC-7721 cells; assay: Flow cytometric analysis of apoptosis; conditions: Figure 5b
Protocol: as §1, §3, §4

| Structure (SMILES) | IC50 [1] [nM] | IC50 [2] [nM] | IC50 [3] [nM] | IC50 [4] [nM] | Apoptosis by morphological characteristics in DAPI staining [5] | Apoptotic ratio of SMMC-7721 cells (flow cytometry), concentration dependence [6] |
| --- | --- | --- | --- | --- | --- | --- |
| Cc1cc(O)c2c3c(cc(O)c2c1)C(=O)c1c(ccc(C2CC4OC5CC(=O)C(C)OC5OC4C(C)O2)c1O)C3=O (stereo not shown) [Compound 1, landomycin N] | > 40000 | > 40000 | > 40000 | > 40000 | – | – |
| Cc1cc(O)c2cc3c(c(O)c2c1)C(=O)c1ccc(C2CC4OC5CC(=O)C(C)OC5OC4C(C)O2)c(O)c1C3=O (stereo not shown) [Compound 2, galtamycin C] | > 40000 | > 40000 | > 40000 | > 40000 | – | – |
| CC1OC(OC2CCC(OC(C)(CC(=O)O)Cc3ccc4c(c3O)C(=O)c3ccc(C5CC6OC7CC(=O)C(C)OC7OC6C(C)O5)c(O)c3C4=O)OC2C)C=CC1=O (stereo not shown) [Compound 3, vineomycin D] | > 40000 | > 40000 | > 40000 | > 40000 | – | – |
| CC1OC(OC2CCC(OC3(C)CC(=O)C4(O)C5=C(C=CC4(O)C3)C(=O)c3c(ccc(C4CC6OC7CC(=O)C(C)OC7OC6C(C)O4)c3O)C5=O)OC2C)C=CC1=O (stereo not shown) [Compound 4, saquayamycin B] | 343 ± 81 | 135 ± 56 | 33 ± 5 | 244 ± 1 | chromatin dispersion and formation of apoptotic body; also recorded: induced apoptosis in SMMC-7721 cells | dependent on the concentrations of saquayamycin B |
| COc1cccc2c1C(=O)c1c(O)c3c(c(O)c1C2=O)C[C@@](O)(C(=O)CO)C[C@@H]3O[C@H]1C[C@H](N)[C@H](O)[C@H](C)O1 [Doxorubicin, reference compound] | 2260 ± 160 | 919 ± 599 | 706 ± 4 | 1030 ± 990 | – | – |
